Experimental data taken from ChEMBL document CHEMBL1201862, “PubChem BioAssay data set” (2004).
Active and inactive are the calls of the source.

Experiments:
[1] = target: T1, Corticotropin-releasing factor receptor 2/Corticotropin-releasing factor-binding protein (Homo sapiens, UniProt P24387+Q13324); assay: Dose Response confirmation of uHTS hits for small molecule antagonists of the CRF-binding protein and CRF-R2 receptor complex.; assay type: functional; conditions: read-out: IC50_Mean
T1 sequence (Q13324 whole entry): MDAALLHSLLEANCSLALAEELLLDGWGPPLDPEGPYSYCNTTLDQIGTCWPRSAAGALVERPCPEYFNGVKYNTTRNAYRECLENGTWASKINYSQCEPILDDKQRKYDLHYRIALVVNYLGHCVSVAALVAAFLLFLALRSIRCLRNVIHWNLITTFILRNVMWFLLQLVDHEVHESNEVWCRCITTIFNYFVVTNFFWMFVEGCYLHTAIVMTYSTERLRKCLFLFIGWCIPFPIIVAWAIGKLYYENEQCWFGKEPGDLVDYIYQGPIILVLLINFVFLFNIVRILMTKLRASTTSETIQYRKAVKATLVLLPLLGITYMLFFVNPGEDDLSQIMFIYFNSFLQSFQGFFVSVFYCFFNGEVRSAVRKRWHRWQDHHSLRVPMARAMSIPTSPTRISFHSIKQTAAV
T1 sequence (P24387 whole entry): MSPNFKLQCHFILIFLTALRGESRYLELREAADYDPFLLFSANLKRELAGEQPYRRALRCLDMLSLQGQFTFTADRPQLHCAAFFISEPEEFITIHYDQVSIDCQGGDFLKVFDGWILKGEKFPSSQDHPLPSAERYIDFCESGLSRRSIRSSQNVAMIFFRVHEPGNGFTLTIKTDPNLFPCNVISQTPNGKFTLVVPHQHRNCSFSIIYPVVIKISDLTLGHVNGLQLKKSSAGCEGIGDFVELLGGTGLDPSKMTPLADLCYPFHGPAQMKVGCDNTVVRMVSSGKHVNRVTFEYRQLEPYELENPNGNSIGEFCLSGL

[2] = target: T1, Corticotropin-releasing factor receptor 2/Corticotropin-releasing factor-binding protein; assay: activators of CRF receptor 2 with binding protein – uHTS hits, confirmation (AID 602473); assay type: functional; conditions: read-out: EC50_Mean
[3] = blockers of CRF-binding protein–CRF-R2 complex – cell-based, uHTS hits, 384-well, dose response (AID 651639); assay type: functional, Homo sapiens; conditions: read-out: IC50_Mean
[4] = target: Ras and Rab interactor 1/Tyrosine-protein kinase ABL1 (Homo sapiens, UniProt P00519+Q13671); assay type: functional;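 further: biochemical TR-FRET dose-response test measuring inhibition of binding between Rin1 and Abl proteins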
Ras and Rab interactor 1/Tyrosine-protein kinase ABL1, sequence (P00519 whole entry, the tested form may be a part): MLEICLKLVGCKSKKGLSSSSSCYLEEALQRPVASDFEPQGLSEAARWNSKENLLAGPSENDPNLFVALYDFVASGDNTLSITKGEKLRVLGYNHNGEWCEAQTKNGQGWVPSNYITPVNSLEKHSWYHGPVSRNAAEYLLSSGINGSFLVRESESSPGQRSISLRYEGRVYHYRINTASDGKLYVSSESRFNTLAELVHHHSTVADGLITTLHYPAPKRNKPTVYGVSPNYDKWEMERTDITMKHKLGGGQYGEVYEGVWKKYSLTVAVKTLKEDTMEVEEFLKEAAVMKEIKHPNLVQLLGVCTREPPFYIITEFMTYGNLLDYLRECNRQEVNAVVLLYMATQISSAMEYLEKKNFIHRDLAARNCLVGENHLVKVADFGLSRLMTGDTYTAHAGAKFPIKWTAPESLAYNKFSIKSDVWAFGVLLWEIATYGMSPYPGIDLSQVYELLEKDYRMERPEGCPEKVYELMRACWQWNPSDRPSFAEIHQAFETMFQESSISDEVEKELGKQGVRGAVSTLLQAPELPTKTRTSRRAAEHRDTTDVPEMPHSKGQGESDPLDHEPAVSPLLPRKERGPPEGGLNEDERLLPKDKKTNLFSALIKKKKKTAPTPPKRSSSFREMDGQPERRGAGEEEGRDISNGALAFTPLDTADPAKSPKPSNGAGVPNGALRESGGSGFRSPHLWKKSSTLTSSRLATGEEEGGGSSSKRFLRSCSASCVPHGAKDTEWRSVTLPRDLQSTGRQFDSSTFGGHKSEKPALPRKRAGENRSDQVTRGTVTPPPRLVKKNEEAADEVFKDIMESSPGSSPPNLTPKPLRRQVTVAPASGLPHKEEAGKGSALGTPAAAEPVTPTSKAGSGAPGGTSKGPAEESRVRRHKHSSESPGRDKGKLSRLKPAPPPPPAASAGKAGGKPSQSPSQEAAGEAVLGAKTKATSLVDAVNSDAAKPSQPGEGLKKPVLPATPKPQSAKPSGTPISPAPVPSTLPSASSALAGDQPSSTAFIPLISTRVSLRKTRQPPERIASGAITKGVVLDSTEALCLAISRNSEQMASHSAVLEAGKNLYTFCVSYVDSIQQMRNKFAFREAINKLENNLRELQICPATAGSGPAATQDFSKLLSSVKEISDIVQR
Ras and Rab interactor 1/Tyrosine-protein kinase ABL1, sequence (Q13671 whole entry, the tested form may be a part): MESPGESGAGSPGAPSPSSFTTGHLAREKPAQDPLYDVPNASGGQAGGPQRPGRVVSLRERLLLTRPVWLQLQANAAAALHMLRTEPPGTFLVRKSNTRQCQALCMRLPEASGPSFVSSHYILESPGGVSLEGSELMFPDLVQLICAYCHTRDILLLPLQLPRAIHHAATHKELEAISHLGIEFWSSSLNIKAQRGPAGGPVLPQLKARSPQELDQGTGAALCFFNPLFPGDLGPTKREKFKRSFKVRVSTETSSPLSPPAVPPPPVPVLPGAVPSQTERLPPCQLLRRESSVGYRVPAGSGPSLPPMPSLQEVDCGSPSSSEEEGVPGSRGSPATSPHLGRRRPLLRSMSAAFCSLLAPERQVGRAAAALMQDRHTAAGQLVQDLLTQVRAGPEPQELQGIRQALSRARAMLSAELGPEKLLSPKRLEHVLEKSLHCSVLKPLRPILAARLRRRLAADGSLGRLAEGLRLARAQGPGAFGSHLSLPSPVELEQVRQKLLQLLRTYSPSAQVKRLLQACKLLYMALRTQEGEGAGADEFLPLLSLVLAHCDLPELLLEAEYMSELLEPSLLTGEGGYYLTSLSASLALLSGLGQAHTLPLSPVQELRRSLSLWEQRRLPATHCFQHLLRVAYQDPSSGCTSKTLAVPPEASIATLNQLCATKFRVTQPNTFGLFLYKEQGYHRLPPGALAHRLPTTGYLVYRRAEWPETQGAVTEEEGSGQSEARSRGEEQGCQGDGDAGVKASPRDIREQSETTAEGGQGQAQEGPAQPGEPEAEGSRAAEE

[5] = target: T2, Carboxy-terminal domain RNA polymerase II polypeptide A small phosphatase 1 (Homo sapiens, UniProt Q9GZU7); assay: CTDSP1 inhibitors, concentration-response, biochemical, absorbance readout, ultra-high-throughput screen actives (AID 540297); assay type: functional
T2 sequence (Q9GZU7 whole entry): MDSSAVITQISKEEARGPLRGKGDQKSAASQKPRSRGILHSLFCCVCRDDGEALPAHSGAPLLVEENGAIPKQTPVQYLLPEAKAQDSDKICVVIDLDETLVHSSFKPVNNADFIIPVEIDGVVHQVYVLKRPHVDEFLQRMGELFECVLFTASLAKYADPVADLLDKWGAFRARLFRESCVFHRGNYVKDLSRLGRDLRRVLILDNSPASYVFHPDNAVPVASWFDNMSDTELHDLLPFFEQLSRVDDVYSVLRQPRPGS

[6] = target: 26S proteasome non-ATPase regulatory subunit 14 (Homo sapiens, UniProt O00487); assay: inhibition of proteasome subunit RPN11 – biochemical, fluorescence polarization, uHTS hits, confirmation (AID 602368); assay type: functional
[7] = target: 72 kDa type IV collagenase (Homo sapiens, UniProt P08253); assay: Dose Response validation of uHTS RPN11 inhibitor hits using a MMP-2 Fluorescence assay.; assay type: functional
Prothrombin = Prothrombin (Bos taurus, UniProt P00735); assay: thrombin protease inhibitors – biochemical, fluorescence polarization, uHTS hits, dose response (AID 602369); assay type: functional
[8] = Trypanosoma cruzi growth suppression in host cells – NIH3T3 host cells, beta-gal luminescence, confirmation (AID 2044); assay type: functional, cell-based;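 further: intracellular parasites grown in NIH/3T3 mouse fibroblasts as host cells; luminescent beta-galactosidase reporter signal from transgenic T. cruzi replicating inside host cells; inhibitors lower the luminescence signal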
[9] = NIH3T3 cell viability loss – ATP luminescence, mouse fibroblasts, counter-screen, dose response (AID 2010); assay type: functional, cell-based;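 further: cells exposed to compound for about 90 hours before reading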
[10] = reduction of Shn3 3'UTR-driven luciferase in osteoblasts – cell-based, Clone20 osteoblasts, firefly luciferase, cherry-picked, dose response (AID 624132); assay type: functional;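 further: firefly luciferase luminescence from reporter carrying the Shn3 3'UTR in osteoblasts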
Melanocortin receptor 4 = Melanocortin receptor 4 (Homo sapiens, UniProt P32245); assay type: functional, cell-based;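 further: Cell-based assay with luminescence read-out, confirmatory dose-response testing for agonist activity of biased ligands at MC4R; human U2OS cells with tagged receptor and beta-arrestin; potency of agonists that increase receptor coupling to beta-arrestin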
Melanocortin receptor 4, sequence (P32245 whole entry): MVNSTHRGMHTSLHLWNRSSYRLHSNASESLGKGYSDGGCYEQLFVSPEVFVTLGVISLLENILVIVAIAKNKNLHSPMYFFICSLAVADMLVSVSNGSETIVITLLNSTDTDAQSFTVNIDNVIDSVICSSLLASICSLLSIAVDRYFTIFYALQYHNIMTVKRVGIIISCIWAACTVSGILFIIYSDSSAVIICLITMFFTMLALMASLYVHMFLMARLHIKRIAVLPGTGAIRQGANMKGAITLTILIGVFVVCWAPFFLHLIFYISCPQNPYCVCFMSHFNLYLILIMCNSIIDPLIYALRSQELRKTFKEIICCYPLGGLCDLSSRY

[11] = loss of viability in HepG2 cells – cell-based, CellTiter-Glo, cherry-picked, cytotoxicity control for Shn3 inhibitor project, dose response (AID 624134); assay type: functional
[12] = non-specific 3'UTR reporter inhibition in Clone20-Shn3RL – cell-based, Renilla luciferase, cherry-picked, counter-screen for Shn3 inhibitor project, dose response (AID 624133); assay type: functional
cells [13] = assay: cells
T-cell = assay: loss of vesicle association with mouse CD8+ T cells – mouse 2C CD8+ T cells, flow cytometry, dose response (AID 485284); assay type: functional
[14] = target: Photoreceptor-specific nuclear receptor (Homo sapiens, UniProt Q9Y5X4); assay type: functional, cell-based;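 further: CHO-S cells with Gal4-NCOR and VP16-NR2E3 two-hybrid luciferase reporter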
Photoreceptor-specific nuclear receptor, sequence (Q9Y5X4 whole entry, the tested form may be a part): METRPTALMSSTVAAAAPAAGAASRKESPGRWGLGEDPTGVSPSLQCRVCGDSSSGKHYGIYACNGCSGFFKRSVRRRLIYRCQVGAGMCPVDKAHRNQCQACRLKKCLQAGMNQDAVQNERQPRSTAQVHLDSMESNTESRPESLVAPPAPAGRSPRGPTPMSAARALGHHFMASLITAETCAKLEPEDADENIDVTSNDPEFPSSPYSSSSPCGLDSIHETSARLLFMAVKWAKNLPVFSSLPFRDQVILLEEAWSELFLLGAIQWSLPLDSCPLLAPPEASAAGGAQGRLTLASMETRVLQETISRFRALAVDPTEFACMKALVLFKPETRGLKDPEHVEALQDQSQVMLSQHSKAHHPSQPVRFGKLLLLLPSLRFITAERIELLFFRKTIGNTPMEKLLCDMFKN

Protein Wnt-3a = Protein Wnt-3a (Mus musculus, UniProt P27467); assay: antagonism of Wnt3a pathway luciferase reporter – Wnt-LIGHT cells, luminescence, selectivity assay for Gli-SUFU antagonist project, dose response (AID 651570); assay type: functional; conditions: read-out: IC50_Mean;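 further: Wnt-LIGHT reporter cells stimulated with conditioned medium from Wnt3a-producing cells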
Protein Wnt-3a, sequence (P27467 whole entry, the tested form may be a part): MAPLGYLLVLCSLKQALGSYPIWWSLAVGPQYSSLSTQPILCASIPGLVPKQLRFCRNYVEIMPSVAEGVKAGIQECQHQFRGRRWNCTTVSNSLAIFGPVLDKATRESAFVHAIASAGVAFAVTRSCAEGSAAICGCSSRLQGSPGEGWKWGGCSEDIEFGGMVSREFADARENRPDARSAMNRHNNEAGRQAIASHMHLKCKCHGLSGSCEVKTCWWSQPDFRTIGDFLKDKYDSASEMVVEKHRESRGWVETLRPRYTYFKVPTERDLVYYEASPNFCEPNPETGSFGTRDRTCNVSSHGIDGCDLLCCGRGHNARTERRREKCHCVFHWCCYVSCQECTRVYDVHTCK

[15] = target: Hepatocyte nuclear factor 4-alpha (Homo sapiens, UniProt P41235); assay type: functional, cell-based;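 further: biochemical luminescence-based dose-response counterscreen measuring inhibition of HNF4 dimerization, run alongside a screen for blockers of ABHD5–perilipin-5 interaction; split luciferase complementation of HNF4 fusion proteins in cell lysate measuring dimerization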
Hepatocyte nuclear factor 4-alpha, sequence (P41235 whole entry, the tested form may be a part): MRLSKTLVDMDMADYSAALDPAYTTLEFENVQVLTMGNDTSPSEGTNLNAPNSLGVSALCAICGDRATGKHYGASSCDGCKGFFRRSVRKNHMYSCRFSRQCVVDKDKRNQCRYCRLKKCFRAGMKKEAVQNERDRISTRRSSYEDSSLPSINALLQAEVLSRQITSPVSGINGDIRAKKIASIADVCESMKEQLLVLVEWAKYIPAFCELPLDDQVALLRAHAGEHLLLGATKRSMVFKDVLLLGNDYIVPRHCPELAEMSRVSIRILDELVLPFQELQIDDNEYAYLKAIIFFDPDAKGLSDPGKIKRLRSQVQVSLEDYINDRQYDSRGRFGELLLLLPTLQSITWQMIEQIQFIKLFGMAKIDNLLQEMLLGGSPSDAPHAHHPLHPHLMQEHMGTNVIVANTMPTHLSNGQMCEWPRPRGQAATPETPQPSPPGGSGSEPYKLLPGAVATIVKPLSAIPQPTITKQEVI

[16] = target: T3, Polyadenylate-binding protein 1 (Homo sapiens, UniProt P11940); assay: MLLE binding blockers, Cy5 peptide tracer – biochemical, fluorescence polarization, Cy5-PAM2 peptide, secondary, miRNA deadenylation inhibitor project, dose response (AID 602260); assay type: functional; conditions: read-out: IC50_Mean
T3 sequence (P11940 whole entry, the tested form may be a part): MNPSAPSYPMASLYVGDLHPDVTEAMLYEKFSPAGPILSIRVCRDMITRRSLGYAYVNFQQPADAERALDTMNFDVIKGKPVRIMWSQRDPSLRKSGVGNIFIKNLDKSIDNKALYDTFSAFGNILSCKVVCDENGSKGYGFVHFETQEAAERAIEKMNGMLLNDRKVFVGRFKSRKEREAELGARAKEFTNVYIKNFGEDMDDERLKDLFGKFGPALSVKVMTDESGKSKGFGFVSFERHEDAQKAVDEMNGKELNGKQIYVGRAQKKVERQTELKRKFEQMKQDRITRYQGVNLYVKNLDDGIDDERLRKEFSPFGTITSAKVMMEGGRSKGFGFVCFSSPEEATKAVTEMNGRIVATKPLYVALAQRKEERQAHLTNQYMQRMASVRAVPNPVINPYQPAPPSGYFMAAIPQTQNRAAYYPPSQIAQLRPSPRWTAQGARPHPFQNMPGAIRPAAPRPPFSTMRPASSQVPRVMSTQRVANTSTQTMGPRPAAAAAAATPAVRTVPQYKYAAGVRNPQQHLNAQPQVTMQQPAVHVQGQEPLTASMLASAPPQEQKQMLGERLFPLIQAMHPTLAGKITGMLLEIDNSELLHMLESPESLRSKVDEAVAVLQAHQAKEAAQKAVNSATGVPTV

[17] = target: T3, Polyadenylate-binding protein 1; assay: MLLE domain peptide-binding blockers, IC50 – biochemical, fluorescence polarization, FITC-PAM2 peptide, dose response (AID 602259); assay type: functional; conditions: read-out: IC50_Mean
[18] = target: Tyrosine-protein phosphatase non-receptor type 11 (Homo sapiens, UniProt Q06124); assay: PTPN11 enzyme inhibitors – biochemical, selectivity assay for STEP inhibitor project, dose response (AID 602367); assay type: functional; conditions: read-out: IC50_Mean
[19] = target: Tyrosine-protein phosphatase non-receptor type 5 (Homo sapiens, UniProt P54829); assay: PTPN5 enzyme inhibition – biochemical, fluorescence intensity, uHTS hits, confirmation (AID 602372); assay type: functional; conditions: read-out: IC50_Mean
[20] = target: Dual specificity protein phosphatase 3 (Homo sapiens, UniProt P51452); assay: VHR phosphatase inhibition, dose response, selectivity assay for STEP inhibitor project, biochemical (AID 602374); assay type: functional; conditions: read-out: IC50_Mean
Dual specificity protein phosphatase 3, sequence (P51452 whole entry): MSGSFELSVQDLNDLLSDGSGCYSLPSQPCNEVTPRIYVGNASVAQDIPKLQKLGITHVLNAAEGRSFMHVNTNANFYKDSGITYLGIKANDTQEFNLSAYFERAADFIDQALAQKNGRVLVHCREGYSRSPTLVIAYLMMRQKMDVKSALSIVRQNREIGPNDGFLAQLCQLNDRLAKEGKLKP

[21] = target: T4, Short transient receptor potential channel 4 (Mus musculus, UniProt Q9QUQ5); assay: calcium entry via TRPC4 opening agents – cell-based, HEK293 TRPC4/mu-opioid, Fluo-4 calcium, dose response (AID 434937); assay type: functional
T4 sequence (Q9QUQ5 whole entry): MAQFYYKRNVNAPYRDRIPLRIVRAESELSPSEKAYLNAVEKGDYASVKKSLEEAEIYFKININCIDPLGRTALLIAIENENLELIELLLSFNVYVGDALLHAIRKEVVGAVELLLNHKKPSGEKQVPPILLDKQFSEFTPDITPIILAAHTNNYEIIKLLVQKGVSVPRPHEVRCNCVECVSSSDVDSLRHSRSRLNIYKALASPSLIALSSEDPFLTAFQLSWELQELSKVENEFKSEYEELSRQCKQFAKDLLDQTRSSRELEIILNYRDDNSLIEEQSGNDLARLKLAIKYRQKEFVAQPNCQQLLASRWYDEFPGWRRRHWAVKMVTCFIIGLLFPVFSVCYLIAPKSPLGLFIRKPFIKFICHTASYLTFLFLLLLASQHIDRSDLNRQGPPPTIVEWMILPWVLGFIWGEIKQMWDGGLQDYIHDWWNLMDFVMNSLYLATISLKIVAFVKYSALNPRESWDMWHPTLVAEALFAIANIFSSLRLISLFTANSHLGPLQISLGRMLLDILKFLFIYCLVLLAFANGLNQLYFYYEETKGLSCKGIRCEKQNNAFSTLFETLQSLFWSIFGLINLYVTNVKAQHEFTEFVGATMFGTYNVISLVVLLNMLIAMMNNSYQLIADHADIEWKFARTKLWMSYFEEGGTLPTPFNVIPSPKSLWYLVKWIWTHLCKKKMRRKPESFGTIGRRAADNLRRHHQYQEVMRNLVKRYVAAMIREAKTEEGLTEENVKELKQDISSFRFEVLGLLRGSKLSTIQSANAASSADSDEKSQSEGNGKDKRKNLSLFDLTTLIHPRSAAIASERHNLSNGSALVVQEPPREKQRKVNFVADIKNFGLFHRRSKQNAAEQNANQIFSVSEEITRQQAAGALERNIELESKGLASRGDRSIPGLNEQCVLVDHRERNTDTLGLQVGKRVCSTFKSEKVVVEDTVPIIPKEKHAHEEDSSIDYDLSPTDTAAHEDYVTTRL

INS1 = assay: INS-1E survival protection against cytokine death – cell-based, luminescence, retest, dose response (AID 449756); assay type: functional; conditions: Rattus norvegicus, INS1;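 further: cell death triggered by IL-1 beta plus TNF-alpha plus IFN-gamma mixture; protective hits raise ATP signal compared with cytokine alone wells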
cells [22] = assay type: functional, cell-based
cells [23] = assay type: functional, cell-based; remark: listed apart in the source
[24] = target: T5, Heat shock factor protein 1 (Mus musculus, UniProt P38532); assay: enhancement of HSF1-driven luciferase signal – cell-based, NIH3T3, luminescence, dose retest, confirmation (AID 435004); assay type: functional;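 further: stress induced by proteasome inhibitor MG132 added 30 min after compound; luciferase reporter driven by HSF1 response element in NIH3T3 cells; actives raise luminescence as potentiators of the MG132 stress response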
T5 sequence (P38532 whole entry): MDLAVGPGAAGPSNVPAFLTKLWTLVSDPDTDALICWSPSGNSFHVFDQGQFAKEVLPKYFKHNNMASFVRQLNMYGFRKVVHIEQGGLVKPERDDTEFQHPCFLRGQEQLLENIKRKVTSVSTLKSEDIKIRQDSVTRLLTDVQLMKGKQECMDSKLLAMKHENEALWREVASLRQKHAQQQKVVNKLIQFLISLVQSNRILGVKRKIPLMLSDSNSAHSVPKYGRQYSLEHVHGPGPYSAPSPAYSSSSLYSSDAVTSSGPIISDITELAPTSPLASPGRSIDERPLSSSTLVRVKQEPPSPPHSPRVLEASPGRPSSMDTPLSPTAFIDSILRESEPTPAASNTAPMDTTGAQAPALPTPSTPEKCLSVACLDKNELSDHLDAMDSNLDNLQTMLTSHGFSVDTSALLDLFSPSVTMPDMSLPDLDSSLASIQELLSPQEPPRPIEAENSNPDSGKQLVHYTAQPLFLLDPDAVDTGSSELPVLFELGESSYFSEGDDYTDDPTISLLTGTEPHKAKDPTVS

Cytochrome P450 2D6 = Cytochrome P450 2D6 (Homo sapiens, UniProt P10635);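 further: CYP2D6 member of a cytochrome P450 panel assay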
Cytochrome P450 2D6, sequence (P10635 whole entry): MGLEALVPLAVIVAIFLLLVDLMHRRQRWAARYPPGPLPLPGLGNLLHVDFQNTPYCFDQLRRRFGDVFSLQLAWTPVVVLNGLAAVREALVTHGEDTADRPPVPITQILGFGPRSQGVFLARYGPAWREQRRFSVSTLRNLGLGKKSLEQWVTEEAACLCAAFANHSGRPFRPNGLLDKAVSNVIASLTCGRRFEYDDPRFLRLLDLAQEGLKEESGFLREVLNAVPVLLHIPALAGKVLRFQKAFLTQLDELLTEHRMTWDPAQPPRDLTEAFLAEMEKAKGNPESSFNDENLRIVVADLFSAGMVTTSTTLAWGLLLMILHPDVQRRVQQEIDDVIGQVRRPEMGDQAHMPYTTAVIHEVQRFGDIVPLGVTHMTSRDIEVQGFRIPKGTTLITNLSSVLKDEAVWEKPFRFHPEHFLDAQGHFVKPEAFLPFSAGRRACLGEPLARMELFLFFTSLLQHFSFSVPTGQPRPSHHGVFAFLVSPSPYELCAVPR

Q: For `CCOC(=O)c1c(-c2ccccc2)oc2ccc(OC(C)C(=O)O)cc12` (centres undefined), which IC50 [1] is on record?
A: < 0.368 µM (active)

Q: What about the EC50 [2] of the same molecule?
A: > 53 µM (inactive)

Q: And the IC50 [3]?
A: 0.34 µM (active)

Q: Which IC50 [4] does the source give for `O=C(Nc1ccccc1N1CCN(C(=O)c2ccc(Cl)cc2)CC1)c1cccnc1` here?
A: 16.4 µM (inactive)

Q: Which IC50 [5] does the source give for `Cc1ccc(NC(=O)CCc2nc(O)c3c4c(sc3n2)CCCC4)nc1` here?
A: 5.1 µM (active)

Q: What about the IC50 [6] of the same molecule?
A: 23.1 µM (active)

Q: And the IC50 [7]?
A: > 100 µM (inactive)

Q: And the IC50 (Prothrombin)?
A: 55 µM (active)

Q: Which results are given for `COc1ccc(CNCCc2ccc(Cl)cc2)cc1OCc1ccccc1`?
A: EC50 [8]: < 100 nM (active); EC50 [9]: > 60 µM (not active); AC50 [10]: 5.59 µM (active); EC50 (Melanocortin receptor 4): > 9.91 µM (active); AC50 [11]: > 70 µM (inactive); AC50 [12]: 11.9 µM (active); EC50 (cells [13]): 114 nM (active)

Q: With `Cc1ccc(OCCOC(=O)c2cc(S(=O)(=O)N3CCCCC3)ccc2N2CCOCC2)cc1` as the molecule, how does the EC50 (T-cell) read?
A: 11.8 µM (active)

Q: And the IC50 [14]?
A: 12.6 µM (inactive)

Q: What about the IC50 (Protein Wnt-3a) of the same molecule?
A: 4.83 µM (active)

Q: With `O=C(NC1CCCCC1)C(c1cc2ccccc2o1)n1c(=O)c(-c2ccco2)nc2ccccc21` (centres undefined) as the molecule, how does the IC50 [15] read?
A: 2.19 µM (active)

Q: With `CCCCn1c2ccc(F)cc2c2nnc(SCCN3CCOCC3)nc21` as the molecule, how does the IC50 [16] read?
A: > 66 µM (inactive)

Q: And the IC50 [17]?
A: > 66 µM (inactive)

Q: With `S=C(c1ccc(Br)cc1)N1CCN(Cc2ccccc2)CC1` as the molecule, how does the IC50 [18] read?
A: 1.81 µM (active)

Q: And the IC50 [19]?
A: 22.7 µM (inactive)

Q: And the IC50 [20]?
A: 719 nM (active)

Q: What does the source list for `Cc1sc2ncnc(NCC(C)(C)N3CCOCC3)c2c1C`?
A: EC50 [21]: 841 nM (active); AC50 (INS1): 2.96 µM (active); AC50 [10]: 1.36 µM (active); AC50 [11]: 4.09 µM (active); AC50 [12]: 3 µM (active); IC50 (Protein Wnt-3a): 0.942 µM (active)

Q: For `COc1ccccc1/C=C/C(=O)c1ccccc1`, which EC50 (cells [22]) is on record?
A: > 350 µM (not active)

Q: What about the EC50 (cells [23]) of the same molecule?
A: 6.12 µM (active)

Q: What about the IC50 [15] of the same molecule?
A: 7.12 µM (active)

Q: What does the source list for `COc1cccc(CSc2nnc(C(F)(F)F)n2Cc2ccc(F)cc2)c1`?
A: EC50 [24]: > 260 µM (inactive); IC50 [1]: 7.2 µM (active); EC50 [2]: > 53 µM (inactive); IC50 [3]: > 20 µM (inactive); AC50 (Cytochrome P450 2D6): 10 µM (inconclusive)

Q: With `CC(=O)Nc1cc2c(nc1C)nc(C)n2Cc1ccc(Br)cc1` as the molecule, how does the IC50 [4] read?
A: 15.5 µM (inactive)
